Assays:
Type in all cases: biochemical
[1] = target: wildtype enzyme, TEM-1 β-lactamase (Escherichia coli, UniProt P62593); experiment: Kinetic rate determinations, wild type enzyme; details: 300 sec, ranking among enzymes; for rate of cleavage (hydrolysis) of fluorogenic substrate: wild type enzyme, fluorescence 365/440 nm
Procedure: (§1) The fluorogenic β-lactamase substrates of the invention were tested for their ability to be hydrolyzed by β-lactamase with release of the fluorescent moiety. The kinetics of hydrolysis were compared to the kinetics of hydrolysis of nitrocefin. The two fluorogenic substrates tested were hydrolyzed using three mutant β-lactamases found in cephem resistant bacteria to compare the rate of hydrolysis with the wildtype enzyme, TEM-1 (Ambler. Phil. Trans. R. Soc. Lond. 289: 321 (1980); Sougakoff et al. Reviews of Infectious Diseases 10: 879 (1988)).
(§2) Nitrocefin kinetics were determined using a Hewlett-Packard 854A spectrophotometer with Chem Station programing, Hewlett-Packard Company Scientific Instruments Division (Palo Alto, Calif.). The data were fit to an unweighted Michaelis-Menten equation using the non-linear data regression package ENZFITTER (Elsevier-BIOSOFT, Cambridge, United Kingdom). The buffer used for all dilutions was 9:1 (50 mM phosphate buffer pH 7.2: DMSO), designated buffer A. The rate of hydrolysis for nitrocefin was determined at a range of 504-514 nm for 300 sec. […] Rates were determined using from 1-0.004 mL of nitrocefin solution diluted to 1 mL total with buffer A. Rate determining experiments were done using 9 different concentrations of the nitrocefin solution and a 1:25 dilution of each enzyme in buffer A.
(§3) Fluorescence kinetics were determined on a Perkin-Elmer LS-5 fluorescence spectrometer Perkin-Elmer Corp. (Norwalk, Conn.) for duration of 300 sec. […] Rates were determined using the following solutions: a) 10.8 mg cephalothin AMC carbamate dissolved in mL of DMSO diluted to 15 mL with buffer A, and b) 11.9 mg cefotaxime AMC carbamate dissolved in 1 mL DMSO diluted to 15 mL with buffer A. For each experiment 0.1 mL of substrate solution was diluted to 3 mL with buffer A. To this was added 0.03 mL of enzyme solution containing (25:1 dilution of the enzyme in buffer A). Fluorescence was read for 300 sec. The rates were determined for both substrates at this concentration for all enzymes tested.

[2] = target: 237(SER) mutant β-lactamase (Escherichia coli, UniProt P62593, A235S); experiment: Kinetic rate determinations, 237(SER) mutant
Procedure: as §1, §2, §3

[3] = target: 104(LYS) mutant β-lactamase (Escherichia coli, UniProt P62593, E102K); experiment: Kinetic rate determinations, 104(LYS) mutant
Procedure: as §1, §2, §3

[4] = target: 238(SER) mutant β-lactamase (Escherichia coli, UniProt P62593, G236S); experiment: Kinetic rate determinations, 238(SER) mutant
Procedure: as §1, §2, §3

β-lactamase = experiment: Cleavage of chromogenic substrates, diazonium salt added to reaction mixture; details: releases 3-aminoindole
Description: Cleavage of the β-lactam ring of cefotaxime indole carbamate or cephalothin indole carbamate produces a cascade of electron migration which releases 3-aminoindole.

[5] = system: β-lactamase (wild type and all mutant enzymes); experiment: Kinetic rate determinations, fluorogenic substrates, all enzymes; details: by the wild type and all mutant enzymes
Procedure: as §1
Fluorescence kinetics were determined on a Perkin-Elmer LS-5 fluorescence spectrometer Perkin-Elmer Corp. (Norwalk, Conn.) for duration of 300 sec. Excitation and emission wavelengths were set to 365 and 440 nm with slits of 10 and 3 nm, respectively. Buffer A was used for all dilutions. […] Rates were determined using the following solutions: a) 10.8 mg cephalothin AMC carbamate dissolved in mL of DMSO diluted to 15 mL with buffer A, and b) 11.9 mg cefotaxime AMC carbamate dissolved in 1 mL DMSO diluted to 15 mL with buffer A. For each experiment 0.1 mL of substrate solution was diluted to 3 mL with buffer A. To this was added 0.03 mL of enzyme solution containing (25:1 dilution of the enzyme in buffer A). Fluorescence was read for 300 sec. The rates were determined for both substrates at this concentration for all enzymes tested.

CO/N=C(\C(=O)N[C@@H]1C(=O)N2C(C(=O)O)=C(COC(=O)Nc3ccc4c(C)cc(=O)oc4c3)CS[C@H]12)c1csc(N)n1 [cefotaxime AMC carbamate, Cefotaxime AMC Carbamate]
rate of cleavage (hydrolysis) of fluorogenic substrate [1]: cleaved most slowly
increase in hydrolysis rate in comparison to wild type β-lactamase ([2]; fluorescence): 60%
increase in the rate of hydrolysis in comparison to wild type β-lactamase ([3]; 104(LYS) mutation, fluorescence): greater than 100%
increase in the rate of hydrolysis in comparison to wild type β-lactamase ([4]; 238(SER) mutation, fluorescence): greater than 100%

CO/N=C(\C(=O)N[C@@H]1C(=O)N2C(C(=O)O)=C(COC(=O)Nc3c[nH]c4ccccc34)CS[C@H]12)c1csc(N)n1 [cefotaxime indole carbamate, Cefotaxime Indole Carbamate]
product after cleavage with β-lactamase and addition of various diazonium salts (β-lactamase): produced a colored precipitate

Cc1cc(=O)oc2cc(NC(=O)OCC3=C(C(=O)O)N4C(=O)[C@@H](NC(=O)Cc5cccs5)[C@H]4SC3)ccc12 [cephalothin AMC carbamate, Cephalothin AMC Carbamate]
rate of cleavage compared between the two fluorogenic substrates [5]: cleaved faster than the cefotaxime AMC carbamate
rate of cleavage (hydrolysis) of fluorogenic substrate [1]: followed closely by the wild type enzyme
rate of cleavage (hydrolysis) of fluorogenic substrate ([2]; fluorescence 365/440 nm, 300 sec, ranking among enzymes): cleaved fastest
rate of cleavage relative to that of the 237(SER) enzyme ([3]; 104(LYS) mutant, fluorescence 365/440 nm, 300 sec): about half that of the 237(SER) enzyme
rate of cleavage (hydrolysis) of fluorogenic substrate ([4]; 238(SER) mutant, fluorescence 365/440 nm, 300 sec, ranking among enzymes): most slowly

O=C(Cc1cccs1)N[C@@H]1C(=O)N2C(C(=O)O)=C(COC(=O)Nc3c[nH]c4ccccc34)CS[C@H]12 [cephalothin indole carbamate, Cephalothin Aminoindole Carbamate]
product after cleavage with β-lactamase and addition of various diazonium salts (β-lactamase): produced a colored precipitate

O=C(Cc1cccs1)N[C@@H]1C(=O)N2C(C(=O)O)=C(/C=C/c3ccc([N+](=O)[O-])cc3[N+](=O)[O-])CS[C@H]12 [nitrocefin, Nitrocefin, reference compound]
rate of hydrolysis for nitrocefin ([1]; wild type, spectrophotometric 504-514 nm): followed by wild type
rate of hydrolysis for nitrocefin ([2]; spectrophotometric 504-514 nm, 300 sec, ranking among enzymes): fastest
rate of hydrolysis for nitrocefin ([3]; 104(LYS) mutant, spectrophotometric 504-514 nm, 300 sec, ranking among enzymes): then the 104(LYS) and 238(SER) mutants
rate of hydrolysis for nitrocefin ([4]; 238(SER) mutant, spectrophotometric 504-514 nm, 300 sec, ranking among enzymes): then the 104(LYS) and 238(SER) mutants
